Laboratory results published in patent US20100179153A1, “Bicyclic S1P Receptor Modulators” (priority 2007, published 2010).

What was measured:
Assay type in all cases: biochemical
human S1P1 receptor = biological target: T1, human S1P1 receptor (Homo sapiens, UniProt P21453); assay: 35S-GTPγS binding assay (SPA), S1P1; conditions: membrane protein from transfected CHO cells
T1 construct: expressed in transfected cells; host or cells: CHO-K1 (ATCC CCL 61); RH7777 may also be used
Protocol: (§1) Test 1: ^355-GTPγS Binding Assay
(§2) The S1P receptor modulating properties of an agent of the invention are tested on the human S1P1, S1P2, S1P3, S1P4 and S1P5, respectively, receptor subtypes. The functional receptor activation is assessed by quantifying the compound-induced ^35S-GTPγS binding to membrane protein prepared from transfected heterologous cells stably expressing the appropriate S1P receptor subtype. CHO cells (CHO-K1, Chinese hamster, ATCC no. CCL 61) are used [RH7777 cells (rat Morris hepatoma, ATCC no. CRL 1601) may also be used]. The membrane protein is prepared from wild-type cells and from different cell clones expressing the appropriate S1P receptor subtype. The assay technology used is SPA (scintillation proximity based assay). […] The luminescence of SPA beads triggered by membrane bound ^35S-GTPγS is quantified with a TOPcount plate reader (Packard). To evaluate the S1P receptor modulation, the stimulation (in %) compared to the baseline is calculated as the binding in the presence of the compound divided by the binding in the absence of a ligand, multiplied by 100. […] The selectivity of the compound towards the S1P receptor subtypes is determined by measuring for each of the different S1P receptor subtypes the level of ^35S-GTPγS binding in the presence of the compound using each of the different membrane proteins.

human S1P5 receptor = biological target: T2, human S1P5 receptor (Homo sapiens, UniProt Q9H228); assay: 35S-GTPγS binding assay (SPA), S1P5; conditions: membrane protein from transfected CHO cells; for EC50: read-out: EC50 for receptor subtype S1P5
T2 construct: expressed in transfected cells; host or cells: CHO-K1 (ATCC CCL 61); RH7777 may also be used
Protocol: as §1
The S1P receptor modulating properties of an agent of the invention are tested on the human S1P1, S1P2, S1P3, S1P4 and S1P5, respectively, receptor subtypes. The functional receptor activation is assessed by quantifying the compound-induced ^35S-GTPγS binding to membrane protein prepared from transfected heterologous cells stably expressing the appropriate S1P receptor subtype. CHO cells (CHO-K1, Chinese hamster, ATCC no. CCL 61) are used [RH7777 cells (rat Morris hepatoma, ATCC no. CRL 1601) may also be used]. The membrane protein is prepared from wild-type cells and from different cell clones expressing the appropriate S1P receptor subtype. The assay technology used is SPA (scintillation proximity based assay). A DMSO solution of the test compound is serially diluted and added to SPA-bead (Amersham-Pharmacia) immobilised S1P receptor subtype expressing membrane protein (1 to 20 μg/well) in the presence of 50 mM HEPES, 100 mM NaCl, 10 mM MgCl2, 10 μM GDP, 0.1% fat free BSA and 0.2 nM ^35S-GTPγS (1200 Ci/mmol) (pH 7.4). After incubation in 96 well microtiter plates at room temperature for 120 minutes, the unbound ^35S-GTPγS is separated by centrifugation. The luminescence of SPA beads triggered by membrane bound ^35S-GTPγS is quantified with a TOPcount plate reader (Packard). To evaluate the S1P receptor modulation, the stimulation (in %) compared to the baseline is calculated as the binding in the presence of the compound divided by the binding in the absence of a ligand, multiplied by 100. Dose response curves are plotted using a non-linear regression curve fitting program, and the EC50 is defined as the concentration of the compound required to give 50% of its maximum stimulation. Preferably, the EC50 value of an agent of the invention in this test is 10′000 nM or less. The selectivity of the compound towards the S1P receptor subtypes is determined by measuring for each of the different S1P receptor subtypes the level of ^35S-GTPγS binding in the presence of the compound using each of the different membrane proteins.

human S1P4 receptor = biological target: T3, human S1P4 receptor (Homo sapiens, UniProt O95977); assay: 35S-GTPγS binding assay (SPA), S1P4; conditions: membrane protein from transfected CHO cells
T3 construct: expressed in transfected cells; host or cells: CHO-K1 (ATCC CCL 61); RH7777 may also be used
T3 sequence (O95977 1-384): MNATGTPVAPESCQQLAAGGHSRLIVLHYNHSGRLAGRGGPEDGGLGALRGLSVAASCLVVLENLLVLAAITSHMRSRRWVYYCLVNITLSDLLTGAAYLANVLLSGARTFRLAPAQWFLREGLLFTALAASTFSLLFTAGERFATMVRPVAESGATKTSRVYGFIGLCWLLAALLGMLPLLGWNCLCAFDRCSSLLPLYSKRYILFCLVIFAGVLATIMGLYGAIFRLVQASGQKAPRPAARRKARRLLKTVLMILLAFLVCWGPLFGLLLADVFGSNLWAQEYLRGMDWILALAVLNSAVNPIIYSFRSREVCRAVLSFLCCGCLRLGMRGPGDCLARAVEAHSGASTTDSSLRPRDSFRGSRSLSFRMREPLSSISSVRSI
Protocol: as §1, §2

T2 sequence (Q9H228 whole entry): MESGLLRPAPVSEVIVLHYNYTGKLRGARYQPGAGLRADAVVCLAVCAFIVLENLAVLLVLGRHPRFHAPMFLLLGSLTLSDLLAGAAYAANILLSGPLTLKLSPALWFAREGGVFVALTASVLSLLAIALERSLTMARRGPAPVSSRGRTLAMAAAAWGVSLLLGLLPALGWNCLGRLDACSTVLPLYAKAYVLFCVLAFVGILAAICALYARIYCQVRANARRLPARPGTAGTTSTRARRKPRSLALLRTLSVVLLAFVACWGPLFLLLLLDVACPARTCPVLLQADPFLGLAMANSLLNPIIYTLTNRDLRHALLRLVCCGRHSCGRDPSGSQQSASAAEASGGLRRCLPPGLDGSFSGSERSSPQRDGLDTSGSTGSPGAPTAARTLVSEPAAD
T1 sequence (P21453 whole entry): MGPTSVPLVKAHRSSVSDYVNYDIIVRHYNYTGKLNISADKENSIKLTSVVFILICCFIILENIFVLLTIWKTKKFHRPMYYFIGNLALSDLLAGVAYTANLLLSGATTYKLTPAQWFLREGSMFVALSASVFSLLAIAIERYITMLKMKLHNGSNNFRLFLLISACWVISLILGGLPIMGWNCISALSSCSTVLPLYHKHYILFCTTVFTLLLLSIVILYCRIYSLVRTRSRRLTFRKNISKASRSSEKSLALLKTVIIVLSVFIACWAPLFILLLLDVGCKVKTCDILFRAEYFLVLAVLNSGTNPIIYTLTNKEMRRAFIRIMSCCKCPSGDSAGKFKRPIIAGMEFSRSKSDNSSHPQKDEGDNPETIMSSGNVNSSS

Row | efficacy at S1P1 (human S1P1 receptor) [%] | efficacy at S1P5 (human S1P5 receptor) [%] | EC50 (human S1P5 receptor) [nM] | efficacy at S1P4 (human S1P4 receptor) [%] | EC50 (human S1P4 receptor; read-out: EC50 for receptor subtype S1P4) [nM] | Compound
1 | 73 | 81 | 27 | – | – | CCc1cc(F)cc(CC)c1Nc1cccc2c(C)n[nH]c(=O)c12 [Example 8, 8-(2,6-Diethyl-4-fluoro-phenylamino)-4-methyl-2H-phthalazin-1-one]
2 | 58 | 80 | 117 | 74 | 929 | Cc1cc(F)cc(C)c1Nc1cccc2c(C)n[nH]c(=O)c12 [Example 4, 8-(4-Fluoro-2,6-dimethyl-phenylamino)-4-methyl-2H-phthalazin-1-one]
